# Measured values as given in publication PMC6829466 (International Journal of Molecular Sciences, 2019).
# Read-outs that look alike come from different tables or passages of the source.
# What was measured:
# [1] = Cytotoxicity, MTT assay in CEM-T4 cells; settings: human
# Method: (§1) Evaluation of anti-HIV activity consisted of measurements of p24 antigen using the Genscreen ULTRA HIV Ag-Ab Kit. […] We included betulin and betulinic acid in our studies in order to broaden the structure-activity study. BVM, the first HIV-1 maturation inhibitor, was applied as a reference compound.
# For the determination of compounds cytotoxicity, CEM-T4 cells were obtained from the NIH AIDS Reagent Program (NIH, US) and were cultured in RPMI supplemented with 10% FCS (Biochrom) and antibiotics at 37 °C in 5% CO2 on 96-well culture plates. […] Cultures in a neat medium (RPMI, 10% FCS) were used as a control. Viability of cells was determined after 7 days using the MTT assay in which 10 μL of MTT solution (5 mg/mL) was added to each culture plate well, and cultures were incubated for 3 h at a temperature of 37 °C. After the centrifugation, the supernatant was removed, and DMSO was added for lysis of the cells and to dissolve crystals of formazan. Color intensity was measured with a plate reader at 560 nm. Cell viability was determined by the Equation (1):Viability (%) = (OD of samples enriched in test drugs/OD of control samples) × 100(1) where OD means optical density.
# Based on the calculations, a graph was created regarding the relationship between the concentration of the compound and the viability from which CC50 was established.
# HIV-1 [2] = test: microbe, parasite or virus in culture; settings: for TI (selectivity index): HIV-infected CEM-T4 cell line
# Method: as §1
# CEM-T4 cells were preincubated (culture plates with 96 flat bottom wells) for 24 h under standard conditions (37 °C, 5% CO2) and in a standard medium (RPMI, FCS 10%) enriched with tested compounds in the concentration range from 0.02 µM to 10 µM. In each well, 20,000 cells were suspended in the solution of a tested compound (200 μL). For each concentration, cultures were run in triplicate. A wild-type HIV-1 was isolated from the HIV-positive patient in the Laboratory of Virology of the National Medicines Institute (Warsaw, Poland) and was used as a reference. A culture of CEM-T4 lines in a standard neat medium (RPMU, FCS 10%) was used to produce viruses. After 24 h of incubation in a medium enriched with a tested compound, cells were inoculated with a known amount of HIV, and after 7 days, HIV replication was evaluated through the measurement of secreted viral protein p24 carried out with the enzyme-linked immunosorbent assay (ELISA) technique. For each tested compound and for each concentration, the measurements of p24 antigen were done in triplicate using the Genscreen ULTRA HIV Ag-Ab Kit (Biorad, Warszawa, Poland) and following manufacturer’s instructions. The absorbance of the sample was determined as an OD measured at 650 nm. HIV replication capacity was calculated using the Equation (2):Virus replication (%) = (OD of drug-enriched samples/OD of control samples) × 100(2)
# The results were presented by a graph showing the ratio of HIV replication to the concentration of the tested preparation.
# HIV = settings: cited from earlier work
# HIV-1 [3] = test system: HIV-1; design: method as in PMID 8176401; settings: inhibiting HIV-1 replication; cited from earlier work
# [4] = Human immunodeficiency virus 1, CEM-T4, 168 h, wild-type HIV-1 in CEM-T4 cells, p24 antigen, 7 days, 50% inhibition of replication
# [5] = wild-type HIV-1 in CEM-T4 cells, p24 antigen, 7 days, 50% inhibition of replication
Compound,CC50 at 7 days [1],TI (selectivity index) (HIV-1 [2]),IC50 (HIV-1 [2]; [4]),further results
"CCOP(=O)(C=C(C)C1CCC2(C(=O)O)CCC3(C)C(CCC4C5(C)CCC(O)C(C)(C)C5CCC43C)C12)OCC (stereo not shown) [Compound 10, 29-Diethoxyphosphorylbetulinic acid]",80 ± 1.3 µM,<8,> 10 µM,–
C=C(CP(=O)(OCC)OCC)C1CCC2(C(=O)O)CCC3(C)C(CCC4C5(C)CCC(OC(=O)CC(C)(C)CC(=O)O)C(C)(C)C5CCC43C)C12 (stereo not shown) [Compound 14b],> 68 µM,>75,0.9 ± 0.12 µM,–
CCOP(=O)(C=C(C)C1CCC2(C(=O)O)CCC3(C)C(CCC4C5(C)CCC(OC(=O)CC(C)(C)C(=O)O)C(C)(C)C5CCC43C)C12)OCC (stereo not shown) [Compound 13a],> 68 µM,>35,< 2 µM,IC50 (HIV-1 [2]; [5]): 2 ± 0.72 µM
"C=C(C)[C@@H]1CC[C@]2(C(=O)O)CC[C@]3(C)[C@H](CC[C@@H]4[C@@]5(C)CC[C@H](OC(=O)CC(C)(C)C(=O)O)C(C)(C)[C@@H]5CC[C@]43C)[C@@H]12 [bevirimat, 3-O-(3′,3′-dimethylsuccinyl) betulinic acid, reference compound]",–,–,–,"CC50 at 7 days ([1]; CEM-T4 cells): 29 ± 2.43 µM; IC50 (HIV-1 [2]; Human immunodeficiency virus 1, CEM-T4, 168 h): 0.03 ± 0.009 µM; EC50 (HIV; literature reports): 0.00035 µM"
C=C(CP(=O)(OCC)OCC)C1CCC2(C(=O)O)CCC3(C)C(CCC4C5(C)CCC(OC(=O)CCC(C)(C)C(=O)O)C(C)(C)C5CCC43C)C12 (stereo not shown) [Compound 14c],> 68 µM,>68,1 ± 0.17 µM,–
C=C(COP(=O)(OCC)OCC)C1CCC2(C(=O)O)CCC3(C)C(CCC4C5(C)CCC(OC(=O)CCC(C)(C)C(=O)O)C(C)(C)C5CCC43C)C12 (stereo not shown) [Compound 12c],64 ± 1.84 µM,16,4 ± 1.65 µM,–
C=C(COP(=O)(OCC)OCC)C1CCC2(C(=O)O)CCC3(C)C(CCC4C5(C)CCC(OC(=O)CC(C)(C)C(=O)O)C(C)(C)C5CCC43C)C12 (stereo not shown) [Compound 12a],52 ± 1.07 µM,52,< 2 µM,IC50 (HIV-1 [2]; [5]): 1 ± 0.33 µM
"C=C(C)C1CCC2(C(=O)O)CCC3(C)C(CCC4C5(C)CCC(OC(=O)CC(C)(C)CC(=O)O)C(C)(C)C5CCC43C)C12 (stereo not shown) [3′,3′-dimethylglutarylbetulinic acid]",–,–,–,EC50 (HIV; literature reports): 0.0023 µM
CCOP(=O)(C=C(C)C1CCC2(C(=O)O)CCC3(C)C(CCC4C5(C)CCC(OC(=O)CCC(C)(C)C(=O)O)C(C)(C)C5CCC43C)C12)OCC (stereo not shown) [Compound 13c],> 68 µM,–,> 10 µM,–
CCOP(=O)(C=C(C)C1CCC2(C(=O)O)CCC3(C)C(CCC4C5(C)CCC(OC(=O)CC(C)(C)CC(=O)O)C(C)(C)C5CCC43C)C12)OCC (stereo not shown) [Compound 13b],> 68 µM,>8,8.8 ± 1.7 µM,–
C=C(COP(=O)(OCC)OCC)C1CCC2(C(=O)O)CCC3(C)C(CCC4C5(C)CCC(O)C(C)(C)C5CCC43C)C12 (stereo not shown) [Compound 9],18 ± 1.79 µM,–,> 10 µM,–
"C=C(C)[C@@H]1CC[C@]2(CO)CC[C@]3(C)[C@H](CC[C@@H]4[C@@]5(C)CC[C@H](O)C(C)(C)[C@@H]5CC[C@]43C)[C@@H]12 [betulin, lup-20(29)-ene-3β,28-diol, reference compound]",46 ± 3.01 µM,–,> 10 µM,–
"3,28-di(dimethylglutaryl)betulin",–,–,–,EC50 (HIV): 0.00066 µM
C=C(CP(=O)(OCC)OCC)C1CCC2(C(=O)O)CCC3(C)C(CCC4C5(C)CCC(OC(=O)CC(C)(C)C(=O)O)C(C)(C)C5CCC43C)C12 (stereo not shown) [Compound 14a],> 68 µM,–,–,–
C=C(COP(=O)(OCC)OCC)C1CCC2(C(=O)O)CCC3(C)C(CCC4C5(C)CCC(OC(=O)CC(C)(C)CC(=O)O)C(C)(C)C5CCC43C)C12 (stereo not shown) [Compound 12b],28 ± 1.64 µM,47,0.6 ± 0.04 µM,–
"C=C(CP(=O)(OCC)OCC)C1CCC2(C(=O)O)CCC3(C)C(CCC4C5(C)CCC(O)C(C)(C)C5CCC43C)C12 (stereo not shown) [Compound 11, 30-Diethoxyphosphorylbetulinic Acid]",> 42 µM,–,> 10 µM,–
"C=C(C)[C@@H]1CC[C@]2(C(=O)O)CC[C@]3(C)[C@H](CC[C@@H]4[C@@]5(C)CC[C@H](O)C(C)(C)[C@@H]5CC[C@]43C)[C@@H]12 [betulinic acid, 3β-hydroxy-20(29)-lupaene-28-oic acid, reference compound]",5 ± 2.44 µM,–,> 10 µM,EC50 (HIV-1 [3]): 1.6 µM
